Results taken from US10435396B2, “2-substituted indazoles, methods for producing same, pharmaceutical preparations that contain same, and use of same to produce drugs” (Bayer Pharma Aktiengesellschaft, priority 2016, dated 2019).
pIC50: −log10 of the molar value. Read-outs that look alike come from different tables or passages of the source.

Legend:
TMD-8 cells = assay: Cell proliferation measurement in TMD-8 cells; format: cell-based, human; details: Cell Titer Glo, read-out: IC50 with respect to proliferation inhibition in TMD-8 cells
Description: Cell Proliferation Measurement The antiproliferative activity of the inventive compounds of the general formula (I) was examined in vitro in human ABC-DLBCL cells (see Table 3). For this purpose 4000 TMD-8 cells (both from ATCC) at 30 μl/cavity in growth medium (RPMI (Biochrom: FG 1215), 20% FCS (Biochrom: S 0615)) were transferred into a 384-cavity plate (Perkin Elmer, white) and incubated at 37° C. overnight. After 24 h, cells on one plate (0 h plate) were treated with 30 μl/cavity of CTG solution (Promega Cell Titer Glo (catalogue # […] and […])) and incubated at room temperature for 10 min, and luminescence was measured by means of a VICTOR V (Perkin Elmer), in order to determine cell viability on commencement of treatment. The cells on the test plate were treated with the inventive compounds of the general formula (I) and incubated at 37° C. for 72 h. The compounds were added to the cells in a 7-stage, 3-fold dilution series using an HP D300 digital dispenser. As control, the cells were treated with vehicle (DMSO). After 72 h, the cells were treated with 30 μl/cavity of CTG solution (Promega Cell Titer Glo (catalogue # […] and […])) and incubated at room temperature for 10 min, and luminescence was measured by means of a VICTOR V (Perkin Elmer), in order to determine cell viability at the end of treatment. The percentage effect on cell growth and the IC50 derived therefrom were determined for each test substance using the values from the 0 h plate (=maximum inhibition) and the DMSO control (=minimum inhibition). The IC50 values were calculated using a 4-parameter fit.

human IRAK4 = human IRAK4 (Homo sapiens (Human), UniProt Q9NWZ3); assay: IRAK4 kinase assay (IRAK4 TR-FRET assay); format: biochemical; details: 1 mM ATP
human IRAK4, sequence (Q9NWZ3 whole entry): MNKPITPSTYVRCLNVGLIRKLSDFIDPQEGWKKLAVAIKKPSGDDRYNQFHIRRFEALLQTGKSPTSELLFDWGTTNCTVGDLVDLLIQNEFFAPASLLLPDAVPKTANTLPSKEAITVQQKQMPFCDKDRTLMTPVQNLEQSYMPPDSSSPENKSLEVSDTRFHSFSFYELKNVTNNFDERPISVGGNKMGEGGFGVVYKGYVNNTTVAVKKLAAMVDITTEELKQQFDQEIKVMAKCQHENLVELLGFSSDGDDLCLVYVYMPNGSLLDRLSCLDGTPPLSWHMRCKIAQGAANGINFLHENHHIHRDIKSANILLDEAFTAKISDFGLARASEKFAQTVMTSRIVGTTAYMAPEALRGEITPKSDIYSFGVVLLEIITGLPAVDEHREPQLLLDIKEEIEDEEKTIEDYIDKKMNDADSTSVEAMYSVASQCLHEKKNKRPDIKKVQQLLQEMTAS
Summary of the method: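 GST-human IRAK4 (insect-cell expressed, ~0.2 nM) was prebound 15 min with compound, then reacted 45 min at 22° C with 1 mM ATP and 0.5 μM biotinylated peptide in HEPES pH 7.5. Phosphopeptide detected by TR-FRET (665/620 nm). IC50 from 4-parameter fit over 11 concentrations, 20 μM-0.073 nM.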

Row | Structure (SMILES) | pIC50 (TMD-8 cells; Homo sapiens, TMD8, 72 h) | pIC50 (human IRAK4) | pIC50 (TMD-8 cells; 72 h)
1 | COc1cc2nn(C3CCOCC3)cc2cc1NC(=O)c1cccc(N2CCOCC2)n1 [Example 24, N-[6-Methoxy-2-(tetrahydro-2H-pyran-4-yl)-2H-indazol-5-yl]-6-(morpholin-4-yl)pyridine-2-carboxamide] | 4.55 | 8.70 | 
2 | COc1cc2nn(C3CCNCC3)cc2cc1NC(=O)c1cccc(C(F)(F)F)n1 [Example 2, N-[6-Methoxy-2-(piperidin-4-yl)-2H-indazol-5-yl]-6-(trifluoromethyl)pyridine-2-carboxamide] | 5.06 | 9.00 | 
3 | COc1cc2nn(C3CCS(=N)(=O)CC3)cc2cc1NC(=O)c1cccc(C(F)(F)F)n1 (single isomer, unassigned) [Example 21, N-[2-(1-Imino-1-oxidohexahydro-1λ^4-thiopyran-4-yl)-6-methoxy-2H-indazol-5-yl]-6-(trifluoromethyl)pyridine-2-carboxamide] | 4.83 | 8.52 | 
4 | COc1cc2nn([C@@H]3C[C@@H]4C[C@H]3CN4C)cc2cc1NC(=O)c1cccc(C(F)(F)F)n1 (relative stereo) [Example 18, rel-N-{6-Methoxy-2-[(1S,4S,5R)-2-methyl-2-azabicyclo[2.2.1]hept-5-yl]-2H-indazol-5-yl}-6-(trifluoromethyl)pyridine-2-carboxamide] | 5.46 | 8.70 | 
5 | COc1cc2nn(C3CC[S+]([O-])CC3)cc2cc1NC(=O)c1cccc(C(F)(F)F)n1 (racemic) [Example 12, rac-N-[6-Methoxy-2-(1-oxidotetrahydro-2H-thiopyran-4-yl)-2H-indazol-5-yl]-6-(trifluoromethyl)pyridine-2-carboxamide] | 4.94 | 8.70 | 
6 | COc1cc2nn(C3CCOCC3)cc2cc1NC(=O)c1cccc(C(C)(C)O)n1 [Example 28, 6-(2-Hydroxypropan-2-yl)-N-[6-methoxy-2-(tetrahydro-2H-pyran-4-yl)-2H-indazol-5-yl]pyridine-2-carboxamide] | 5.45 | 8.52 | 
7 | CC(C)(O)c1cc2nn(C3CCNCC3)cc2cc1NC(=O)c1cccc(C(F)(F)F)n1 [Example 46, N-[6-(2-Hydroxypropan-2-yl)-2-(piperidin-4-yl)-2H-indazol-5-yl]-6-(trifluoromethyl)pyridine-2-carboxamide] | 4.85 | 8.52 | 
8 | CC(C)(O)c1cc2nn(C3CCS(=O)(=O)CC3)cc2cc1NC(=O)c1cccc(C(F)(F)F)n1 [Example 44, N-[2-(1,1-Dioxidotetrahydro-2H-thiopyran-4-yl)-6-(2-hydroxypropan-2-yl)-2H-indazol-5-yl]-6-(trifluoromethyl)pyridine-2-carboxamide] | 4.73 | 8.30 | 
9 | COc1cc2nn(C3CCS(=N)(=O)CC3)cc2cc1NC(=O)c1cccc(C(F)(F)F)n1 (single isomer, unassigned) [Example 20, N-[2-(1-Imino-1-oxidohexahydro-1λ^4-thiopyran-4-yl)-6-methoxy-2H-indazol-5-yl]-6-(trifluoromethyl)pyridine-2-carboxamide] |  | 8.40 | 4.79
10 | COc1cc2nn(C3CCOCC3)cc2cc1NC(=O)c1cccc(C(F)F)n1 [Example 23, 6-(Difluoromethyl)-N-[6-methoxy-2-(tetrahydro-2H-pyran-4-yl)-2H-indazol-5-yl]pyridine-2-carboxamide] | 5.07 | 9.00 | 
11 | COc1cc2nn(C3CCN(C(=O)CO)CC3)cc2cc1NC(=O)c1cccc(C(F)(F)F)n1 [Example 5, N-[2-(1-Glycoloylpiperidin-4-yl)-6-methoxy-2H-indazol-5-yl]-6-(trifluoromethyl)pyridine-2-carboxamide] | 4.81 | 8.70 | 
12 | COc1cc2nn(C3CCOCC3)cc2cc1NC(=O)c1cccc(C(F)(F)F)n1 [Example 1, N-[6-Methoxy-2-(tetrahydro-2H-pyran-4-yl)-2H-indazol-5-yl]-6-(trifluoromethyl)pyridine-2-carboxamide] | 4.55 | 8.52 | 
13 | COc1cc2nn(C3CCN(C4COC4)CC3)cc2cc1NC(=O)c1cccc(C(F)(F)F)n1 [Example 10, N-{6-Methoxy-2-[1-(oxetan-3-yl)piperidin-4-yl]-2H-indazol-5-yl}-6-(trifluoromethyl)pyridine-2-carboxamide] | 4.63 | 8.52 | 
14 | COc1cc2nn(C3CCN(C)CC3)cc2cc1NC(=O)c1cccc(C(F)(F)F)n1 [Example 4, N-[6-Methoxy-2-(1-methylpiperidin-4-yl)-2H-indazol-5-yl]-6-(trifluoromethyl)pyridine-2-carboxamide] | 5.39 | 9.00 | 
15 | COc1cc2nn(C3CCN(CCO)CC3)cc2cc1NC(=O)c1cccc(C(F)(F)F)n1 [Example 13, N-{2-[1-(2-Hydroxyethyl)piperidin-4-yl]-6-methoxy-2H-indazol-5-yl}-6-(trifluoromethyl)pyridine-2-carboxamide] | 5.23 | 9.00 | 
